In paper PMC9532536 (Acta Pharmaceutica Sinica. B, 2022):
pKd: −log10 of the molar value.

Molecular target: GRP78 (78 kDa glucose-regulated protein) (Homo sapiens, UniProt P11021, K326A)
Assay: microscale thermophoresis
Type: binding

GRP78 (78 kDa glucose-regulated protein), sequence (P11021 19-654 K326A): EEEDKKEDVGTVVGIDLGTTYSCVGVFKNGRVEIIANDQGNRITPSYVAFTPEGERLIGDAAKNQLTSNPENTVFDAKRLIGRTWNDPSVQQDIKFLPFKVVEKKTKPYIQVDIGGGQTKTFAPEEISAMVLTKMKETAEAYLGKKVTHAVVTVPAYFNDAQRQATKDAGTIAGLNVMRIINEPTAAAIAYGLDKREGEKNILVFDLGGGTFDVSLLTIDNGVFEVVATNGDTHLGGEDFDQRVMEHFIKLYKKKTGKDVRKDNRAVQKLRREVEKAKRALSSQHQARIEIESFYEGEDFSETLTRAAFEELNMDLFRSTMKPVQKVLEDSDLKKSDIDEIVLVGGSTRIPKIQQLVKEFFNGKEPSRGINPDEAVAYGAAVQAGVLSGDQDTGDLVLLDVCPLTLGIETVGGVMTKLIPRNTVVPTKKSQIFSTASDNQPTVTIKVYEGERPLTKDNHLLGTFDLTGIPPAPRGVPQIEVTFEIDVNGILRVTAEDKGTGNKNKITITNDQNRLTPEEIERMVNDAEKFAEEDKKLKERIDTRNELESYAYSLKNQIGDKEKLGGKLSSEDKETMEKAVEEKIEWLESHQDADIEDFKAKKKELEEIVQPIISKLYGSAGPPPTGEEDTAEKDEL

Compound `CC(=O)OC(C)(C)/C=C/C(=O)[C@](C)(O)[C@H]1[C@H](O)C[C@@]2(C)[C@@H]3CC=C4[C@@H](C[C@H](O)C(=O)C4(C)C)[C@]3(C)C(=O)C[C@]12C` [CuB, cucurbitacin B] has a pKd of 4.60.
